In ChEMBL document CHEMBL4842342, “Amidoxime prodrugs convert to potent cell-active multimodal inhibitors of the dengue virus protease” (Eur J Med Chem, 2021):
The source made the active and inactive calls. The rule behind the calls is not given here.

How the values were obtained:
dengue virus type 2 [1] = assay: Antiviral activity against Dengue virus 2 measured at 48 hrs post-infection; assay type: functional, organism-based
Genome polyprotein = Genome polyprotein (dengue virus type 2, UniProt P29990); assay: Inhibition of DENV2 NS2B-NS3 protease
Zika virus = assay: Antiviral activity against Zika virus; assay type: functional, organism-based
[2] = molecular target: Genome polyprotein (dengue virus type 2) (UniProt P29990); assay: Inhibition of DENV2 NS2B-NS3 protease up to 200 uM; settings: dose microM <=200
dengue virus type 2 [3] = assay: Antiviral activity against DENV2 infected in human Huh-7 cells assessed as reduction in intracellular viral RNA synthesis at 10 uM treated at 6 hrs post-viral infection and measured after 48 hrs by real time RT-PCR method; assay type: functional, organism-based
dengue virus type 2 [4] = assay: Antiviral activity against DENV2 infected in human Huh-7 cells assessed as viral infection rate at 10 uM treated at 6 hrs post-viral infection and measured at 30 hrs post-infection by confocal microscopy (reference value: 50 to 60%); assay type: functional; settings: time 24 hrs
dengue virus type 2 [5] = assay: Antiviral activity against DENV2 infected in human Huh-7 cells assessed as log reduction in intracellular viral RNA synthesis at 10 uM treated at 6 hrs post-viral infection and measured after 38 hrs by real time RT-PCR method; assay type: functional
dengue virus type 2 [6] = assay: Antiviral activity against DENV2 infected in human Huh-7 cells assessed as log reduction in intracellular viral RNA synthesis at 10 uM treated at 6 hrs post-viral infection and measured after 12 hrs by real time RT-PCR method; assay type: functional
[7] = molecular target: Genome polyprotein (dengue virus type 2) (UniProt P29990); assay: Inhibition of NS2B-NS3 protease in DENV2 infected in human Huh-7 cells assessed as inhibition of NS3 internal cleavage site at 10 uM treated 6 hrs […] viral infection and measured at 30 hrs post-infection by western blot analysis; assay type: cell-based; settings: time 24.0 hrs
dengue virus type 2 [8] = assay: Antiviral activity against DENV2 infected in human Huh-7 cells assessed as log reduction in extracellular viral RNA synthesis at 10 uM treated at 6 hrs post-viral infection and measured after 48 hrs by real time RT-PCR method; assay type: functional
[9] = Cytotoxicity against human PBMC assessed as reduction in cell viability
dengue virus type 2 [10] = assay: Antiviral activity against DENV2 D2Y10 virus infected in human PBMC cells in presence of 4G2 antibody; assay type: functional, organism-based
dengue virus type 2 [11] = assay: Antiviral activity against Dengue virus 2 EDEN2 infected in human Huh-7 cells; assay type: functional, organism-based; settings: EDEN2, Huh-7
[12] = Cytotoxicity against human Huh-7 cells assessed as reduction in cell viability; assay type: cell-based
[13] = Dengue virus, 48 h, read-out: EC50

| Compound | EC50 (dengue virus type 2 [1]; [13]) | further results |
| --- | --- | --- |
| N/C(=N\O)c1cccc(-c2ccc3c(c2)c2cc(-c4cccc(/C(N)=N/O)c4)ccc2n3Cc2ccc3c(c2)OCO3)c1 | 5 µM | – |
| N=C(N)c1cccc(-c2ccc3c(c2)c2cc(-c4cccc(C(=N)N)c4)ccc2n3S(=O)(=O)c2cccc(C(F)(F)F)c2)c1 | 7.3 µM | IC50 (Genome polyprotein; read-out: IC50): 2.9 µM |
| N/C(=N\O)c1cccc(-c2ccc3c(c2)c2cc(-c4cccc(/C(N)=N/O)c4)ccc2n3S(=O)(=O)c2cccc(Br)c2)c1 | 2.4 µM | – |
| N/C(=N\O)c1cccc(-c2ccc3c(c2)c2cc(-c4cccc(/C(N)=N/O)c4)ccc2n3S(=O)(=O)c2cccc(OC(F)(F)F)c2)c1 | 7.7 µM | IC50 (Genome polyprotein): Not Active |
| N/C(=N\O)c1cccc(-c2ccc3c(c2)c2cc(-c4cccc(/C(N)=N/O)c4)ccc2n3CC(O)CS(=O)(=O)c2cccc(F)c2)c1 (stereo unspecified) | 8.7 µM | – |
| COc1cccc(Cn2c3ccc(-c4cccc(C(=N)N)c4)cc3c3cc(-c4cccc(C(=N)N)c4)ccc32)c1 | 6.6 µM | IC50 (Genome polyprotein; read-out: IC50): 2.71 µM |
| COc1ccc(S(=O)(=O)n2c3ccc(-c4cccc(C(=N)N)c4)cc3c3cc(-c4cccc(C(=N)N)c4)ccc32)cc1 | 9.5 µM | IC50 (Genome polyprotein; read-out: IC50): 6.6 µM |
| N/C(=N\O)c1cccc(-c2ccc3c(c2)c2cc(-c4cccc(/C(N)=N/O)c4)ccc2n3S(=O)(=O)c2ccccc2OC(F)(F)F)c1 | 1.9 µM | IC50 (Genome polyprotein): Not Active |
| COc1cccc(Cn2c3ccc(-c4cccc(/C(N)=N/O)c4)cc3c3cc(-c4cccc(/C(N)=N/O)c4)ccc32)c1 | 1.8 µM | EC50 (Zika virus): 8.7 µM; inhibition [2]: inactive |
| COc1ccc(S(=O)(=O)n2c3ccc(-c4cccc(/C(N)=N/O)c4)cc3c3cc(-c4cccc(/C(N)=N/O)c4)ccc32)cc1OC | 5.7 µM | – |
| COc1cccc(Cn2c3ccc(-c4cccc(-c5noc(=O)[nH]5)c4)cc3c3cc(-c4cccc(-c5noc(=O)[nH]5)c4)ccc32)c1 | 14.5 µM | IC50 (Genome polyprotein; read-out: IC50): 121 µM |
| COc1ccc(F)cc1S(=O)(=O)n1c2ccc(-c3cccc(/C(N)=N/O)c3)cc2c2cc(-c3cccc(/C(N)=N/O)c3)ccc21 | 2.8 µM | – |
| N/C(=N\O)c1cccc(-c2ccc3c(c2)c2cc(-c4cccc(/C(N)=N/O)c4)ccc2n3S(=O)(=O)c2ccccc2C(F)(F)F)c1 | 5.3 µM | – |
| N/C(=N\O)c1cccc(-c2ccc3c(c2)c2cc(-c4cccc(/C(N)=N/O)c4)ccc2n3Cc2ccc(Br)c(F)c2)c1 | 1.4 µM | – |
| COc1ccc(Br)cc1S(=O)(=O)n1c2ccc(-c3cccc(/C(N)=N/O)c3)cc2c2cc(-c3cccc(/C(N)=N/O)c3)ccc21 | 4.9 µM | – |
| N/C(=N\O)c1cccc(-c2ccc3c(c2)c2cc(-c4cccc(/C(N)=N/O)c4)ccc2n3CCCCOc2ccc3ccc(=O)[nH]c3c2)c1 | 8.9 µM | – |
| N/C(=N\O)c1cccc(-c2ccc3c(c2)c2cc(-c4cccc(/C(N)=N/O)c4)ccc2n3S(=O)(=O)c2cccc3cccnc23)c1 | 8.5 µM | – |
| COc1ccc(S(=O)(=O)n2c3ccc(-c4cccc(/C(N)=N/O)c4)cc3c3cc(-c4cccc(/C(N)=N/O)c4)ccc32)cc1 | 9.6 µM | IC50 (Genome polyprotein): Not Active |
| Cc1ccccc1S(=O)(=O)n1c2ccc(-c3cccc(/C(N)=N/O)c3)cc2c2cc(-c3cccc(/C(N)=N/O)c3)ccc21 | 8.6 µM | – |
| COc1ccc(Cn2c3ccc(-c4cccc(/C(N)=N/O)c4)cc3c3cc(-c4cccc(/C(N)=N/O)c4)ccc32)cc1F | 6.9 µM | – |
| N/C(=N\O)c1cccc(-c2ccc3c(c2)c2cc(-c4cccc(/C(N)=N/O)c4)ccc2n3Cc2cc(F)cc(Br)c2)c1 | 1.5 µM | – |
| N/C(=N\O)c1cccc(-c2ccc3c(c2)c2cc(-c4cccc(/C(N)=N/O)c4)ccc2n3S(=O)(=O)c2ccc(Br)cc2)c1 | 5.4 µM | – |
| N=C(N)c1cccc(-c2ccc3c(c2)c2cc(-c4cccc(C(=N)N)c4)ccc2n3S(=O)(=O)c2cccc(OC(F)(F)F)c2)c1 | 8.1 µM | IC50 (Genome polyprotein; read-out: IC50): 3.1 µM |

| Compound | EC50 (dengue virus type 2 [1]; [13]) | further results |
| --- | --- | --- |
| Cn1c2ccc(-c3cccc(/C(N)=N/O)c3)cc2c2cc(-c3cccc(/C(N)=N/O)c3)ccc21 | – | EC50 (dengue virus type 2 [1]): Not Active |
| COc1ccc(S(=O)(=O)n2c3ccc(-c4cccc(/C(N)=N/O)c4)cc3c3cc(-c4cccc(/C(N)=N/O)c4)ccc32)cc1C | 3.1 µM | – |
| N/C(=N\O)c1cccc(-c2ccc3c(c2)c2cc(-c4cccc(/C(N)=N/O)c4)ccc2n3S(=O)(=O)c2cccc(Cl)c2)c1 | 7.6 µM | – |
| N/C(=N\O)c1cccc(-c2ccc3c(c2)c2cc(-c4cccc(/C(N)=N/O)c4)ccc2n3Cc2ccc(F)cc2)c1 | 8.1 µM | – |
| N/C(=N\O)c1cccc(-c2ccc3c(c2)c2cc(-c4cccc(/C(N)=N/O)c4)ccc2n3CC(O)COc2ccccn2)c1 (stereo unspecified) | 33.9 µM | – |
| N/C(=N\O)c1cccc(-c2ccc3c(c2)c2cc(-c4cccc(/C(N)=N/O)c4)ccc2n3S(=O)(=O)c2ccc(Br)c(F)c2)c1 | 7.8 µM | – |
| COc1cccc(S(=O)(=O)n2c3ccc(-c4cccc(/C(N)=N/O)c4)cc3c3cc(-c4cccc(/C(N)=N/O)c4)ccc32)c1 | 8.7 µM | Activity (dengue virus type 2 [3]): inactive; Activity (dengue virus type 2 [4]): 30%; Activity (dengue virus type 2 [5]): inactive; log(activity) (dengue virus type 2 [6]): 1; inhibition [7]: Active; log(activity) (dengue virus type 2 [8]): 2; IC50 (Genome polyprotein): Not Active |
| COc1ccc(OC)c(S(=O)(=O)n2c3ccc(-c4cccc(/C(N)=N/O)c4)cc3c3cc(-c4cccc(/C(N)=N/O)c4)ccc32)c1 | 5.1 µM | – |
| N/C(=N\O)c1cccc(-c2ccc3c(c2)c2cc(-c4cccc(/C(N)=N/O)c4)ccc2n3S(=O)(=O)c2ccccc2Cl)c1 | 2.7 µM | – |
| N/C(=N\O)c1cccc(-c2ccc3c(c2)c2cc(-c4cccc(/C(N)=N/O)c4)ccc2n3S(=O)(=O)c2cccc(C(F)(F)F)c2)c1 | 5 µM | IC50 (Genome polyprotein): Not Active |
| COc1ccc(S(=O)(=O)n2c3ccc(-c4cccc(/C(N)=N/O)c4)cc3c3cc(-c4cccc(/C(N)=N/O)c4)ccc32)cc1F | 2.7 µM | – |
| N/C(=N\O)c1cccc(-c2ccc3c(c2)c2cc(-c4cccc(/C(N)=N/O)c4)ccc2n3S(=O)(=O)c2ccccc2Br)c1 | 7.6 µM | IC50 (Genome polyprotein): Not Active |
| COc1cccc(S(=O)(=O)n2c3ccc(-c4cccc(C(=N)N)c4)cc3c3cc(-c4cccc(C(=N)N)c4)ccc32)c1 | 26.2 µM | IC50 (Genome polyprotein; read-out: IC50): 4.5 µM |
| COc1ccc(S(=O)(=O)n2c3ccc(-c4cccc(/C(N)=N/O)c4)cc3c3cc(-c4cccc(/C(N)=N/O)c4)ccc32)cc1Br | 2.4 µM | – |
| CN(C)CCCn1c2ccc(-c3cccc(/C(N)=N/O)c3)cc2c2cc(-c3cccc(/C(N)=N/O)c3)ccc21 | – | EC50 (dengue virus type 2 [1]): Not Active |
| COc1ccc(S(=O)(=O)n2c3ccc(-c4cccc(/C(N)=N/O)c4)cc3c3cc(-c4cccc(/C(N)=N/O)c4)ccc32)c(OC)c1 | 1.8 µM | – |
| N/C(=N\O)c1cccc(-c2ccc3c(c2)c2cc(-c4cccc(/C(N)=N/O)c4)ccc2n3S(=O)(=O)c2ccc(C(F)(F)F)cc2)c1 | 4.9 µM | – |
| N=C(N)c1cccc(-c2ccc3c(c2)c2cc(-c4cccc(C(=N)N)c4)ccc2n3Cc2cccc(Br)c2)c1 | – | CC50 [9]: > 100 µM; EC50 (dengue virus type 2 [10]): 48.1 µM; EC50 (dengue virus type 2 [11]): 16.4 µM; CC50 [12]: 100 µM |
| N=C(N)c1cccc(-c2ccc3c(c2)c2cc(-c4cccc(C(=N)N)c4)ccc2n3S(=O)(=O)c2ccccc2OC(F)(F)F)c1 | 5.6 µM | IC50 (Genome polyprotein; read-out: IC50): 9.8 µM |
| N/C(=N\O)c1cccc(-c2ccc3c(c2)c2cc(-c4cccc(/C(N)=N/O)c4)ccc2n3S(=O)(=O)c2cc(F)cc(Br)c2)c1 | 17.3 µM | – |
| CCn1c2ccc(-c3cccc(/C(N)=N/O)c3)cc2c2cc(-c3cccc(/C(N)=N/O)c3)ccc21 | 1.5 µM | – |
| N/C(=N\O)c1cccc(-c2ccc3c(c2)c2cc(-c4cccc(/C(N)=N/O)c4)ccc2n3S(=O)(=O)c2cccc(F)c2)c1 | 3.1 µM | – |
| N=C(N)c1cccc(-c2ccc3c(c2)c2cc(-c4cccc(C(=N)N)c4)ccc2n3S(=O)(=O)c2ccccc2Br)c1 | 6.9 µM | IC50 (Genome polyprotein; read-out: IC50): 8.8 µM |
